The values below come from article PMC6329768, “Dinitroimidazoles as bifunctional bioconjugation reagents for protein functionalization and peptide macrocyclization” (Nature Communications, 2019).

Data set [1] in a line: chemical stability of peptide conjugates under acidic, basic or oxidative conditions (HPLC). It counts as physicochemical. The conditions noted are these: 10 h, conjugate 0.05 mM, three independent experiments; for stability of conjugate at pH 10.0: aqueous buffer pH 10.0, 37 °C. As to the method: The conversion values represent means ± SDs (standard deviations) of three independent experiments The stability of protein conjugates is a major concern for bioconjugation reagents. […] Next, we investigated the stability of the (4-nitroimidazole)-thiol linkage. Thiol-maleimide and thiol-arylation conjugates are reported to degrade under acidic, basic, or oxidative conditions[25],[30],[31]. We incubated conjugate 1c' in aqueous buffer at pH 2.0, pH 10.0, or in the presence of 10 mM H2O2 for 10 h at 37 °C.
Next, we explored the application of 1,4-DNIms in Lys bioconjugation of peptides. […] HRMS analysis and NMR analysis determined that product 1d is a ε-(4-nitroimidazole)-Lys derivative (Fig. 6a, Supplementary Figs. 28–32). Next, we explored the chemoselectivity of compound 1a in DMSO via incubation with nucleophilic amino acids, including Tyr, Ser, Trp, His, Asp, and Arg. […] To sum up, 1,4-DNIms react specifically with cysteine thiols under neutral aqueous conditions, and modify lysine ε-amines through a distinct mechanism with high selectivity in organic solvents in the absence of thiols by generating stable conjugates.
Supplementary Figure 15. Stability of 4-nitroimidazole-ACA adduct 1c’ (0.05 mM) in buffers at pH 2.0, pH 10.0, or in 10 mM H2O2 at 37 °C for 10 h before subjected to HPLC analysis. Gradient used:isocratic 2% CH3CN for 5 min, then 2% to 90% CH3CN in 25 min, then isocratic 90% CH3CN for 5 min, then 90% to 2% CH3CN in 5 min. Monitor wavelength: 365 nm.
Supplementary Figure 16. Stability of NEM-2a’ conjugate (0.05 mM) in buffers at pH 2.0 and 10.0. NEM-2a’ conjugate was incubated at pH 2.0 and pH 10.0 at 37 °C for 10 h before subjected to HPLC analysis. Gradient used:isocratic 2% CH3CN for 5 min, then 2% to 90% CH3CN in 25 min, then isocratic 90% CH3CN for 5 min, then 90% to 2% CH3CN in 5 min. Monitor wavelength: 254 nm. […]

Data set [2] can be described thus: Cys-Cys side-chain stapling of unprotected peptides with bis(1,4-dinitroimidazole) linker 5a (bis[(1,4-dinitroimidazol-2-yl)methyl] succinate, 1.0 eq) by cine-substitution at imidazole C5; sodium ascorbate 2.0 mM. The settings on record: the molecule shown is the open-chain precursor, 100 mM HEPES buffer pH 7.0, 1.0 mM, 25.0 °C.
Data set [3] is described as follows: Lys-Lys (or Dap-Dap) side-chain stapling of unprotected peptides with bis(1,4-dinitroimidazole) linker 5a (bis[(1,4-dinitroimidazol-2-yl)methyl] succinate, 1.2 mM), DIEA 4.0 mM; ANRORC ring-opening/ring-closing gives 1-alkyl-4-nitroimidazole linkages. The settings on record: the molecule shown is the open-chain precursor, DMSO (ca. 84%, with ca. 10% water and 6% MeCN from stock solutions), 1.0 mM, 37.0 °C, 2.0 h.

A short description of data set [4]: hydrolytic stability of reagents in PBS buffer pH 7.4 (HPLC). It counts as physicochemical. The conditions noted are these: 100 mM PBS buffer, pH 7.4, 37 °C, HPLC analysis.
Method: Stability of N-phenyl maleimide in 100 mM PBS buffer,
pH 7.4 at 37 °C for indicated time before subjected to HPLC analysis.
at 37 °C for indicated time before subjected to HPLC analysis.
Data set [5] is described as follows: solubility in aqueous solutions. It counts as physicochemical. The text has this:
Lysines are rich in natural proteins and usually solvent-exposed on protein surface, therefore representing a major competition.

Regarding `COC(=O)[C@H](C)NC(=O)[C@H](CSc1[nH]cnc1[N+](=O)[O-])NC(=O)[C@H](C)NC(C)=O` [1c], in data set [1] (10 mM H2O2 in Na2CO3 buffer at pH 8.0, 37 °C), the “stability of conjugate under oxidative conditions” value is listed as “did not decompose”. Further, the “stability of conjugate at pH 2.0” value in data set [1] (aqueous buffer pH 2.0, 37 °C) was “did not decompose”. For the same compound, the “stability of conjugate at pH 10.0” value in data set [1] was “did not decompose”. `CC(=O)N[C@@H](C)C(=O)N[C@@H](CSc1[nH]c(COC(=O)CCC(=O)OCc2nc([N+](=O)[O-])cn2[N+](=O)[O-])nc1[N+](=O)[O-])C(=O)N[C@@H](C)C(=O)N[C@@H](CCCNC(=N)N)C(=O)NCC(=O)N[C@@H](Cc1c[nH]c2ccccc12)C(=O)NCC(=O)N[C@@H](CS)C(=O)N[C@@H](C)C(=O)O` [Ac-Ala-Cys-Ala-Arg-Gly-Trp-Gly-Cys-Ala-OH] had a ring closure, conversion by HPLC in data set [2] (37-membered ring, 0.167 h) of 95%. The compound `CC(=O)N[C@@H](C)C(=O)N[C@@H](CSc1[nH]c(COC(=O)CCC(=O)OCc2nc([N+](=O)[O-])cn2[N+](=O)[O-])nc1[N+](=O)[O-])C(=O)N[C@@H](C)C(=O)N[C@H](C(=O)N[C@@H](CC(N)=O)C(=O)N[C@@H](CS)C(=O)N[C@@H](C)C(=O)O)[C@@H](C)O` [Ac-Ala-Cys-Ala-Thr-Asn-Cys-Ala-OH] yielded a ring closure, conversion by HPLC in data set [2] (31-membered ring, 0.167 h) of 95%. `CC(=O)N[C@@H](C)C(=O)N[C@@H](CSc1[nH]c(COC(=O)CCC(=O)OCc2nc([N+](=O)[O-])cn2[N+](=O)[O-])nc1[N+](=O)[O-])C(=O)NCC(=O)N[C@@H](CS)C(=O)N[C@@H](C)C(=O)O` [Ac-Ala-Cys-Gly-Cys-Ala-OH]: in data set [2] (25-membered ring, 0.167 h), the ring closure, conversion by HPLC is 95%. `CC(=O)N[C@@H](C)C(=O)N[C@@H](CSc1[nH]c(COC(=O)CCC(=O)OCc2nc([N+](=O)[O-])cn2[N+](=O)[O-])nc1[N+](=O)[O-])C(=O)NCC(=O)N[C@@H](Cc1ccccc1)C(=O)N[C@@H](CCCCN)C(=O)N[C@@H](C)C(=O)N[C@@H](CS)C(=O)NCC(=O)N[C@H](C(=O)N[C@@H](CCCCN)C(=O)O)C(C)C` [Ac-Ala-Cys-Gly-Phe-Lys-Ala-Cys-Gly-Val-Lys-OH] registered a ring closure, conversion by HPLC in data set [2] (34-membered ring, 0.5 min) of 100%. Regarding `CC(=O)N[C@@H](C)C(=O)N[C@@H](Cn1cc([N+](=O)[O-])nc1COC(=O)CCC(=O)OCc1nc([N+](=O)[O-])cn1[N+](=O)[O-])C(=O)N[C@H](C(=O)N[C@H](C(=O)N[C@@H](Cc1ccccc1)C(=O)N[C@@H](CC(N)=O)C(=O)N[C@@H](CC(C)C)C(=O)N[C@@H](Cc1c[nH]c2ccccc12)C(=O)N[C@@H](CN)C(=O)N[C@@H](C)C(=O)O)[C@@H](C)O)[C@@H](C)O` [Ac-Ala-Dap-Thr-Thr-Phe-Asn-Leu-Trp-Dap-Ala-OH], in data set [3] (36-membered ring), the ring closure, conversion by HPLC was determined as 95%. `CC(=O)N[C@@H](C)C(=O)N[C@@H](CCCCn1cc([N+](=O)[O-])nc1COC(=O)CCC(=O)OCc1nc([N+](=O)[O-])cn1[N+](=O)[O-])C(=O)N[C@@H](Cc1ccccc1)C(=O)N[C@@H](CC(N)=O)C(=O)N[C@@H](CC(C)C)C(=O)N[C@@H](Cc1c[nH]c2ccccc12)C(=O)N[C@@H](CCCCN)C(=O)N[C@@H](C)C(=O)O` [Ac-Ala-Lys-Phe-Asn-Leu-Trp-Lys-Ala-OH]: in data set [3] (36-membered ring), the ring closure, conversion by HPLC is 90%.

Compound `CC(=O)N[C@@H](C)C(=O)N[C@@H](CCCCn1cc([N+](=O)[O-])nc1COC(=O)CCC(=O)OCc1nc([N+](=O)[O-])cn1[N+](=O)[O-])C(=O)N[C@H](C(=O)N[C@@H](Cc1ccccc1)C(=O)N[C@@H](CC(N)=O)C(=O)N[C@@H](CCCCN)C(=O)N[C@@H](C)C(=O)O)[C@@H](C)O` [Ac-Ala-Lys-Thr-Phe-Asn-Lys-Ala-OH] registered a ring closure, conversion by HPLC in data set [3] (33-membered ring) of 95%.

In the case of `CC(=O)N[C@@H](CC(C)C)C(=O)N[C@H](C(=O)N[C@@H](Cc1ccccc1)C(=O)N[C@@H](CCCCn1cc([N+](=O)[O-])nc1COC(=O)CCC(=O)OCc1nc([N+](=O)[O-])cn1[N+](=O)[O-])C(=O)N[C@@H](Cc1c[nH]cn1)C(=O)N[C@@H](Cc1ccc(O)cc1)C(=O)N[C@@H](Cc1c[nH]c2ccccc12)C(=O)N[C@@H](C)C(=O)N[C@@H](CCC(N)=O)C(=O)N[C@@H](CC(C)C)C(=O)N[C@@H](CCCCN)C(=O)N[C@@H](CO)C(=O)O)[C@@H](C)O` [Ac-Leu-Thr-Phe-Lys-His-Tyr-Trp-Ala-Gln-Leu-Lys-Ser-OH], the ring closure, conversion by HPLC in data set [3] (42-membered ring) turned out to be 90%. Consider `N=C(N)NCCC[C@H](NC(=O)[C@H](CSc1[nH]c(COC(=O)CCC(=O)OCc2nc([N+](=O)[O-])cn2[N+](=O)[O-])nc1[N+](=O)[O-])NC(=O)[C@@H](N)Cc1ccccc1)C(=O)NCC(=O)N[C@@H](CC(=O)O)C(=O)N[C@@H](CS)C(=O)O` [H-Phe-Cys-Arg-Gly-Asp-Cys-OH], for which the ring closure, conversion by HPLC in data set [2] (31-membered ring, 0.167 h) was 90%. Take `CCN1C(=O)CC(SC[C@H](NC(=O)[C@H](C)NC(C)=O)C(=O)N[C@@H](C)C(=O)O)C1=O` (stereo partly shown) [N-ethyl maleimide conjugate of 2a′]: the “stability of conjugate at pH 10.0” value in data set [1] is “complete hydrolysis”. Take `O=C1C=CC(=O)N1c1ccccc1` [N-phenyl maleimide]: in data set [4], the “time to complete hydrolysis (yielding the maleamic acid)” value is given as ≤ 2 h. Turning to `O=S(=O)(c1c(F)c(F)c(F)c(F)c1F)c1c(F)c(F)c(F)c(F)c1F` [pf1, 6,6′-sulfonylbis(1,2,3,4,5-pentafluorobenzene)], the “solubility in aqueous solutions” value in data set [5] was < 50 µM. “Ac-Ala-Lys-Ser-Gln-Val-Thr-Phe-Asn-Leu-Trp-Arg-Met-Gln-Lys-Ala-OH” gave a ring closure, conversion by HPLC in data set [3] (57-membered ring) of 92%.
